US4232040A, “Compositions for and a method of preventing diabetic complications” (Syntex (U.S.A.) Inc., priority 1978, dated 1980)

Columns and labels:
lens aldose reductase = settings: in vitro studies; cited from earlier work
Aldose reductase = biological target: T1, Aldose reductase (Oryctolagus cuniculus, UniProt P15122); experiment: Aldose reductase inhibition in vitro (rabbit lens enzyme, glyceraldehyde substrate, loss of absorbance at 340 millimicrons); format: biochemical, New Zealand rabbit; settings: 2 min, Table I, relative to non-inhibited control (0%); for inhibition at 100 µM: molar concentration of xanthone compound 1 × 10^-4; for inhibition at 10 µM: molar concentration of xanthone compound 1 × 10^-5; for inhibition at 1 µM: molar concentration of xanthone compound 1 × 10^-6
T1 construct: Aldose reductase is isolated by homogenizing the lens in 3 volumes of water; from tissue; host or cells: lens of mature New Zealand rabbits
Description: In brief, a solution of the enzyme is added to an appropriately buffered solution containing glyceraldehyde. The loss of ultra violet absorbance at 340 millimicrons is indicative of the rate of reaction of the aldehyde with the enzyme as previously reported by Hayman and Kinoshita, (J. Biol. Chem: 240, 877, (1965)).
Fifty lenses are obtained from mature, New Zealand, rabbits and are immediately frozen on dry ice. Aldose reductase is isolated by homogenizing the lens in 3 volumes of water for 30 seconds in a Waring blender followed by centrifugation at 10,000 xg for 15 minutes to remove insoluble material. Saturated ammonium sulfate is added to the supernatant fluid to 40% saturation. The suspension is centrifuged after 15 minutes, and the supernatant liquid recovered. Additional protein is removed by increasing the ammonium sulfate concentration to 50%, and centrifuging the mixture. Aldose reductase is precipitated from the 50% saturated solution by the addition of powdered ammonium sulfate to 75% saturation and is recovered by centrifugation. The precipitated enzyme is assayed by following the ultraviolet absorbance at 340 millimicrons after dissolving the enzyme in 0.05 M sodium chloride. The enzyme (0.50 ml) is added to a quartz cuvette containing phosphate buffer (0.067 M, pH 6.0), NADPH (2×10^-5 M), and water to a final volume of 3 ml and the cuvette inserted in a conventional ultra-violet spectrometer. The reaction is started by the addition of substrate (glyceraldehyde) to the contents of the cuvette and is followed by the determination of loss of absorbance at 340 millimicrons for 2 minutes at 37° C. The reaction rate observed is usually linear for at least 5 minutes.
All results are shown in Tables I, II, and III as % inhibition, i.e. based on a non-inhibited control sample, no inhibition, 0%.

Question: For C[C@@H]1O[C@@H](Oc2c(-c3ccc(O)c(O)c3)oc3cc(O)cc(O)c3c2=O)[C@H](O)[C@H](O)[C@H]1O [quercetrin], which “inhibition of lens aldose reductase” value (lens aldose reductase) is on record?
Answer: The value was “among the most potent”.

Question: With CN(C)S(=O)(=O)c1ccc2oc3ccc(C(=O)O)cc3c(=O)c2c1 as the compound, how does the inhibition at 100 µM (Aldose reductase) read?
Answer: The inhibition at 100 µM was 94%.

Question: And the inhibition at 10 µM (Aldose reductase)?
Answer: Its inhibition at 10 µM is 87%.

Question: What about the inhibition at 1 µM (Aldose reductase) of the same compound?
Answer: The inhibition at 1 µM was 67%.

Question: With C[C@@H]1O[C@@H](Oc2c(-c3cc(O)c(O)c(O)c3)oc3cc(O)cc(O)c3c2=O)[C@H](O)[C@H](O)[C@H]1O [myrecetrin] as the compound, how does the “inhibition of lens aldose reductase” value (lens aldose reductase) read?
Answer: The value was “among the most potent”.

Question: Which inhibition at 100 µM (Aldose reductase) does the source give for CN(C)S(=O)(=O)c1ccc2oc3ccc(C(=O)N(CCO)CCO)cc3c(=O)c2c1 here?
Answer: Its inhibition at 100 µM is 86%.

Question: And the inhibition at 10 µM (Aldose reductase)?
Answer: The inhibition at 10 µM was 64%.

Question: And the inhibition at 1 µM (Aldose reductase)?
Answer: Its inhibition at 1 µM is 29%.

Question: What does the source list for CC(C)CN(C)S(=O)(=O)c1ccc2oc3ccc(C(=O)O)cc3c(=O)c2c1?
Answer: inhibition at 100 µM (Aldose reductase): 95%; inhibition at 10 µM (Aldose reductase): 75%; inhibition at 1 µM (Aldose reductase): 25%

Question: Which inhibition at 1 µM (Aldose reductase) does the source give for O=C(O)c1ccc2oc3ccc(S(=O)(=O)O)cc3c(=O)c2c1 [H 3 H] here?
Answer: Its inhibition at 1 µM is 0%.

Question: Which “inhibition of lens aldose reductase” value (lens aldose reductase) does the source give for O=c1c(O)c(-c2ccc(O)c(O)c2)oc2cc(O)cc(O)c12 [quercetin] here?
Answer: Its value is “among the most potent”.
